Source: patent US20100234417A1, “THYROTROPIN RELEASING HORMONE RECEPTOR-OREXIN RECEPTOR HETERO-DIMERS/-OLIGOMERS” (DIMERIX BIOSCIENCE PTY LTD., priority 2006, published 2010)
Ends that are not written are not given here.

Tests used:
Type in all cases: cell-based
OxR2 = biological target: T1, OxR2 (Homo sapiens, UniProt O43614); experiment: BRET/eBRET beta-arrestin 2 recruitment to OxR2/Rluc or OxR2/Rluc8 without IG3 (pcDNA3); details: OxR2/Rluc8 + barr2/Venus + pcDNA3; FIG. 18
T1 construct: expressed in transfected cells; host or cells: HEK293 (HEK293FT)
T1 sequence (O43614 1-444): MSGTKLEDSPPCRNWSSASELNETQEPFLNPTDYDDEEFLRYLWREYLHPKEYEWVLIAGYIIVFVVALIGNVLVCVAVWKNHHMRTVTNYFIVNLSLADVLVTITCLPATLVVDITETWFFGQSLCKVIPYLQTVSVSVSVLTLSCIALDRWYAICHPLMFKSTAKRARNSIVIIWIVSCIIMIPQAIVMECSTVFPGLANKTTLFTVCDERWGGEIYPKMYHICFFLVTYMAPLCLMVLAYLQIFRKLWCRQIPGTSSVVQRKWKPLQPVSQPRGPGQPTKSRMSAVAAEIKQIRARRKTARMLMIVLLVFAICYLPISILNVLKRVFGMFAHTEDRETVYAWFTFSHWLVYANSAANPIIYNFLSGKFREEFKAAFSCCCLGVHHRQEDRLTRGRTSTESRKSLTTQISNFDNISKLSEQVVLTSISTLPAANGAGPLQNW
Description: (§1) Briefly, referring to FIGS. 1 to 3, the IGs are provided in the form of the two receptors (TRHR and OxR). One of the two is attached to an RC (IG1-RC1, IG3). A second IG (IG2-RC2) is derived from a molecule that interacts with the receptors upon ligand binding (e.g. beta-arrestin, or a mutant thereof).
(§2) Cells were seeded in 6-well plates at a density of approximately 630,000 cells/well (HEK293FT) or approximately 150,000 cells/well (COS-7) and maintained at 37° C., 5% CO2 in Complete Media (DMEM containing 0.3 mg/ml glutamine, 100 IU/ml penicillin and 100 μg/ml streptomycin (Gibco)) supplemented with 10% fetal calf serum (FCS; Gibco). […] Filtered light emissions were sequentially measured for 3-5 s in each of the ‘donor wavelength window’ (400-475 nm) and ‘acceptor wavelength window’ (>500 nm for EGFP or 520-540 nm for EYFP, Topaz (TYFP) or Venus). […] In this case, data are shown as ‘fluorescence/luminescence’ being the ratio of light emission through the ‘acceptor wavelength window’ over the 400-475 nm emission for a particular cell sample. Unless otherwise stated, BRET signals were measured in 96-well microplates.
(§3) Referring now to FIG. 18, eBRET signals were measured from cells transiently co-expressing OxR2/Rluc8 and barr2/Venus either with HA-TRHR or pcDNA3.

[1] = tested on: thyrotropin releasing hormone receptor/orexin receptor hetero-dimer/-oligomer (OxR2 with HA-TRHR); experiment: eBRET: OxR2/Rluc8 + barr2/Venus + HA-TRHR as IG3; details: FIG. 18
Description: as §1, §2, §3

[2] = tested on: thyrotropin releasing hormone receptor/orexin receptor hetero-dimer/-oligomer (TRHR with OxR2); experiment: eBRET/BRET detection of TRHR-OxR2 association: TRHR/Rluc + tagged beta-arrestin + OxR2 as IG3 in HEK293 cells
Description: as §1
Cells were seeded in 6-well plates at a density of approximately 630,000 cells/well (HEK293FT) or approximately 150,000 cells/well (COS-7) and maintained at 37° C., 5% CO2 in Complete Media (DMEM containing 0.3 mg/ml glutamine, 100 IU/ml penicillin and 100 μg/ml streptomycin (Gibco)) supplemented with 10% fetal calf serum (FCS; Gibco). Transient transfections were carried out 24 h after seeding using GeneJuice (Novagen) or Metafectene (Biontex) according to manufacturer instructions. 24 h post-transfection, cells were washed with PBS, detached using 0.05% trypsin/0.53 mM EDTA, resuspended in HEPES-buffered phenol red free Complete Media containing 5% FCS and added to a poly-L-lysine-coated white microplate (Nunc). 48 h post-transfection, eBRET assays were carried out following pre-incubation of cells with EnduRen™ (Promega) at a final concentration of 30-40 μM, at 37° C., 5% CO2 for 2 h. For original BRET studies, the HEPES-buffered phenol red free Complete Media was replaced with PBS and coelenterazine h (Molecular Probes) added to a final concentration of 5 μM immediately prior to commencing the assay. […] Filtered light emissions were sequentially measured for 3-5 s in each of the ‘donor wavelength window’ (400-475 nm) and ‘acceptor wavelength window’ (>500 nm for EGFP or 520-540 nm for EYFP, Topaz (TYFP) or Venus). The BRET signal observed between interacting proteins is normalized by subtracting the background BRET ratio. […] In the following examples, the first calculation will be used, unless the signal is described as the ‘ligand-induced BRET ratio’. […] In this case, data are shown as ‘fluorescence/luminescence’ being the ratio of light emission through the ‘acceptor wavelength window’ over the 400-475 nm emission for a particular cell sample. Unless otherwise stated, BRET signals were measured in 96-well microplates. […]
Cells not pretreated with antagonist were pretreated with PBS instead for the same amount of time. […]

[3] = tested on: thyrotropin releasing hormone receptor/orexin receptor hetero-dimer/-oligomer (TRHR with OxR1); experiment: eBRET: TRHR/Rluc + barr2/Venus + OxR1 as IG3 in HEK293 cells; details: TRHR/Rluc + barr2/Venus + OxR1; 10^−6M OxA; FIG. 6
Description: as §1
Cells were seeded in 6-well plates at a density of approximately 630,000 cells/well (HEK293FT) or approximately 150,000 cells/well (COS-7) and maintained at 37° C., 5% CO2 in Complete Media (DMEM containing 0.3 mg/ml glutamine, 100 IU/ml penicillin and 100 μg/ml streptomycin (Gibco)) supplemented with 10% fetal calf serum (FCS; Gibco). Transient transfections were carried out 24 h after seeding using GeneJuice (Novagen) or Metafectene (Biontex) according to manufacturer instructions. 24 h post-transfection, cells were washed with PBS, detached using 0.05% trypsin/0.53 mM EDTA, resuspended in HEPES-buffered phenol red free Complete Media containing 5% FCS and added to a poly-L-lysine-coated white microplate (Nunc). 48 h post-transfection, eBRET assays were carried out following pre-incubation of cells with EnduRen™ (Promega) at a final concentration of 30-40 μM, at 37° C., 5% CO2 for 2 h. For original BRET studies, the HEPES-buffered phenol red free Complete Media was replaced with PBS and coelenterazine h (Molecular Probes) added to a final concentration of 5 μM immediately prior to commencing the assay. […] Filtered light emissions were sequentially measured for 3-5 s in each of the ‘donor wavelength window’ (400-475 nm) and ‘acceptor wavelength window’ (>500 nm for EGFP or 520-540 nm for EYFP, Topaz (TYFP) or Venus). The BRET signal observed between interacting proteins is normalized by subtracting the background BRET ratio. […] In this case, data are shown as ‘fluorescence/luminescence’ being the ratio of light emission through the ‘acceptor wavelength window’ over the 400-475 nm emission for a particular cell sample. Unless otherwise stated, BRET signals were measured in 96-well microplates. […]

[4] = HEK293, TRHR/Rluc + barr2/Venus + OxR2, ligand 10^−6M, FIG. 4

## NC(=O)[C@@H]1CCCN1C(=O)[C@H](Cc1cnc[nH]1)NC(=O)[C@@H]1CCC(=O)N1 [TRH, pGlu-His-Pro-NH2]
OxR2
  ligand-induced eBRET signal: No ligand-induced eBRET signal was observed
[1]; gradual increase over time
  eBRET signal reached (ligand-induced BRET ratio): 0.05

## OxA: orexin A; known orexin receptor modulator, used as IG3 ligand (modulator) (QPLPDCCRQKTCSCRLYELLHGAGNHAAGILTL; ends and bridges not checked; cysteine pairing not given here; UniProt O43612 34-66, looked up)
[2]; [4]
  eBRET signal: 0.07-0.08
  time for eBRET signal to reach its level: up to 30 minutes
[2]; TRHR/Rluc + HA-OxR2 + EGFP/barr1 or EGFP/barr2, FIG. 7
  time for eBRET signal to reach plateau: more than 10 minutes
[2]; TRHR/Rluc + OxR2 + EGFP/barr1, FIG. 8
  time for eBRET signal to reach plateau: more than 10 minutes
[2]; TRHR/Rluc + OxR2 + EGFP/barr1R169E, FIG. 8
  time for eBRET signal to reach plateau: ≤ 20 min
[2]; TRHR/Rluc + OxR2 + EGFP/barr1 or EGFP/barr2, FIG. 5
  time for eBRET signal to reach plateau: more than 10 minutes
[2]; TRHR/Rluc + barr2/Venus + OxR2, 10^−6M OxA, FIG. 6
  eBRET signal: eBRET signal was observed
[2]; TRHR/Rluc + barr2/Venus + OxR2, FIG. 12
  dose-response Hill slope: greater than 1
[3]
  eBRET signal: small eBRET signal
[1]
  time to eBRET signal peak: ≤ 5 min
